Laboratory results taken from ChEMBL document CHEMBL4376845, “Design, Synthesis, and Biological Evaluation of MEK PROTACs” (J Med Chem, 2020).
Calls of active or inactive are those of the source. The calls are words filed in the database; no cut-off is given here.

What was measured:
A-375 [1] = test: Antiproliferative activity against human A375 cells assessed as growth inhibition at 10 uM measured up to 72 hrs by IncuCyte zoom live cell analysis; type: functional, cell-based
[2] = biological target: T1, von Hippel-Lindau disease tumor suppressor/Dual specificity mitogen-activated protein kinase kinase 2/Dual specificity mitogen-activated protein kinase kinase 1 (Homo sapiens) (UniProt P36507+Q02750+P40337); test: Protac activity at VHL/MEK in human A375 cells assessed as reduction in ERK1/2 phosphorylation at 10 uM incubated for >=8 hrs in presence of poly(I:C) stimulation by Surefire assay relative to control; type: cell-based
[3] = biological target: T2, Dual specificity mitogen-activated protein kinase kinase 1 (Homo sapiens, UniProt Q02750); test: Inhibition of MEK1 (unknown origin) incubated for 60 mins in presence of ATP by Kinase Glo luminescence assay
[4] = biological target: T1, von Hippel-Lindau disease tumor suppressor/Dual specificity mitogen-activated protein kinase kinase 2/Dual specificity mitogen-activated protein kinase kinase 1 (Homo sapiens); test: Protac activity at VHL/MEK in human A375 cells assessed as maximal MEK1 degradation at 10 uM incubated for 8 hrs in presence of ploy(I:C) stimulation by Surefire assay; type: cell-based
[5] = biological target: T1, von Hippel-Lindau disease tumor suppressor/Dual specificity mitogen-activated protein kinase kinase 2/Dual specificity mitogen-activated protein kinase kinase 1 (Homo sapiens); test: Protac activity at VHL/MEK in human A375 cells assessed as MEK1 degradation at 10 uM incubated for 16 hrs in presence of poly(I:C) stimulation by immunoblotting analysis; type: cell-based
[6] = biological target: T1, von Hippel-Lindau disease tumor suppressor/Dual specificity mitogen-activated protein kinase kinase 2/Dual specificity mitogen-activated protein kinase kinase 1 (Homo sapiens); test: Protac activity at VHL/MEK in human A375 cells assessed as MEK1 degradation at 10 uM incubated for 2 hrs in presence of ploy(I:C) stimulation by Surefire assay; type: cell-based
[7] = biological target: T1, von Hippel-Lindau disease tumor suppressor/Dual specificity mitogen-activated protein kinase kinase 2/Dual specificity mitogen-activated protein kinase kinase 1 (Homo sapiens); test: Protac activity at VHL/MEK in human A375 cells assessed as MEK1 degradation at 1 to 10 uM incubated for 12 hrs followed by poly(I:C) treatment and measured after 4 hrs by Surefire assay; type: cell-based
[8] = biological target: T1, von Hippel-Lindau disease tumor suppressor/Dual specificity mitogen-activated protein kinase kinase 2/Dual specificity mitogen-activated protein kinase kinase 1 (Homo sapiens); test: Protac activity at VHL/MEK in human A375 cells assessed as reduction in ERK1/2 phosphorylation at 10 uM incubated for 2 hrs in presence of poly(I:C) stimulation by Surefire assay; type: cell-based
[9] = biological target: T1, von Hippel-Lindau disease tumor suppressor/Dual specificity mitogen-activated protein kinase kinase 2/Dual specificity mitogen-activated protein kinase kinase 1 (Homo sapiens); test: Protac activity at VHL/MEK in human A375 cells assessed as […] at <10 uM incubated for 12 hrs followed by poly(I:C) treatment and measured after 4 hrs by Surefire assay; type: cell-based
[10] = biological target: T1, von Hippel-Lindau disease tumor suppressor/Dual specificity mitogen-activated protein kinase kinase 2/Dual specificity mitogen-activated protein kinase kinase 1 (Homo sapiens); test: Protac activity at VHL/MEK in human A375 cells assessed as MEK1 degradation at 10 uM incubated for 16 hrs in presence of poly(I:C) stimulation by Surefire assay relative to control; type: cell-based
[11] = biological target: T1, von Hippel-Lindau disease tumor suppressor/Dual specificity mitogen-activated protein kinase kinase 2/Dual specificity mitogen-activated protein kinase kinase 1 (Homo sapiens); test: Protac activity at VHL/MEK in human A375 cells assessed as reduction in IL6 secretion at 10 uM incubated for 12 hrs followed by poly(I:C) treatment and measured after 4 hrs by AlphaLISA assay; type: cell-based
[12] = biological target: T1, von Hippel-Lindau disease tumor suppressor/Dual specificity mitogen-activated protein kinase kinase 2/Dual specificity mitogen-activated protein kinase kinase 1 (Homo sapiens); test: Protac activity at VHL/MEK in human A375 cells assessed as MEK2 degradation at 10 uM incubated for 16 hrs in presence of poly(I:C) stimulation by immunoblotting analysis; type: cell-based
[13] = biological target: T1, von Hippel-Lindau disease tumor suppressor/Dual specificity mitogen-activated protein kinase kinase 2/Dual specificity mitogen-activated protein kinase kinase 1 (Homo sapiens); test: Protac activity at VHL/MEK in human A375 cells assessed as MEK1 degradation at 1 uM incubated for 16 hrs in presence of poly(I:C) stimulation by Surefire assay relative to control; type: cell-based
[14] = Lipophilicity, log D of compound; type: physicochemical; settings: octanol/water
[15] = Aqueous solubility of the compound in buffer at pH 7.4; type: physicochemical
A-375 [16] = test: Antiproliferative activity against human A375 cells assessed as reduction in cell viability; type: functional, cell-based
[17] = biological target: T2, Dual specificity mitogen-activated protein kinase kinase 1; test: Inhibition of MEK1 in human A375 cells assessed as reduction in ERK1/2 phosphorylation at 10 uM incubated for 1 to 16 hrs in presence of poly(I:C) stimulation by Surefire assay; type: cell-based
A-375 [18] = test: Reduction in MEK1 protein expression in human A375 cells at 10 uM incubated for 16 hrs in presence of poly(I:C) stimulation by Surefire assay; type: functional, cell-based
[19] = biological target: T2, Dual specificity mitogen-activated protein kinase kinase 1; test: Inhibition of MEK1 in human A375 cells assessed as inhibition of ERK1/2 phosphorylation at 1 to 10 uM incubated for 12 hrs followed by poly(I:C) treatment and measured after 4 hrs by Surefire assay; type: cell-based
A-375 [20] = test: Reduction in MEK1 protein level in human A375 cells at 100 pM to 10 uM incubated for 12 hrs followed by poly(I:C) treatment and measured after 4 hrs by Surefire assay relative to untreated control; type: functional
[21] = biological target: T1, von Hippel-Lindau disease tumor suppressor/Dual specificity mitogen-activated protein kinase kinase 2/Dual specificity mitogen-activated protein kinase kinase 1 (Homo sapiens); test: Protac activity at VHL/MEK in human A375 cells assessed as MEK1 degradation at 10 uM incubated up to 8 hrs in presence of poly(I:C) stimulation by Surefire assay; type: cell-based
[22] = biological target: T2, Dual specificity mitogen-activated protein kinase kinase 1; test: Inhibition of MEK1 in human A375 cells assessed as reduction in IL6 secretion at 1 to 10 uM incubated for 12 hrs followed by poly(I:C) treatment and measured after 4 hrs by AlphaLISA assay; type: cell-based

T2 sequence (Q02750 whole entry): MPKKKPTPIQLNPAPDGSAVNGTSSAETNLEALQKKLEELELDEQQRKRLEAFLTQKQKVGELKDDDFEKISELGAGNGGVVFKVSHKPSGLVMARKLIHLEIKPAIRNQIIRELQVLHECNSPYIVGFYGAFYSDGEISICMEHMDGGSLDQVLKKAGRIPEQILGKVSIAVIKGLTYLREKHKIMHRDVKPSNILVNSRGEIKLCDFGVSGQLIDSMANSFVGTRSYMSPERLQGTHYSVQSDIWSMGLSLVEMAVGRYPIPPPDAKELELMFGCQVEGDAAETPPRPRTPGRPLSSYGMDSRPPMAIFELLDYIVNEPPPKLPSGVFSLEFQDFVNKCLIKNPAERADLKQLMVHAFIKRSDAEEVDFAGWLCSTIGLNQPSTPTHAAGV
T1 sequence (P36507 whole entry, looked up): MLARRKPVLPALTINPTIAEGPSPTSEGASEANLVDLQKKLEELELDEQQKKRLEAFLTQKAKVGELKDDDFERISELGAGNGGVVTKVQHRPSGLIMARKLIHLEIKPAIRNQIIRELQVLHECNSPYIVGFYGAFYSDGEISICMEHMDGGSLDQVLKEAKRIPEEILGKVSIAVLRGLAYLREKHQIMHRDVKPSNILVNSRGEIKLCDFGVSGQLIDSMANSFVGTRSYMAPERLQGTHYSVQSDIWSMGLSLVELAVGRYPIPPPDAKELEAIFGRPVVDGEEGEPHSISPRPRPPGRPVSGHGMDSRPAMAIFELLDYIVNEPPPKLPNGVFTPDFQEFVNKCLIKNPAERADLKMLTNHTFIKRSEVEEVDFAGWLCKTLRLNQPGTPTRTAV
T1 sequence (P40337 whole entry, looked up): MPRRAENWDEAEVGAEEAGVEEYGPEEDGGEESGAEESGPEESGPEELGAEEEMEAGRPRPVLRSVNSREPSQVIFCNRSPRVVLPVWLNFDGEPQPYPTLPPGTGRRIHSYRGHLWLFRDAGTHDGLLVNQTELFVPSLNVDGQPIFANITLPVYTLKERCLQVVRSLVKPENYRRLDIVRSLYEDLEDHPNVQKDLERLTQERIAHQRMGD
T1 sequence (Q02750 whole entry, looked up): as the sequence (Q02750 whole entry) above

Row | SMILES | inhibition [2] [%] | IC50 [3] [nM] | Activity [4] | Activity [5] | Activity [6] | Activity [7] | Activity [8] | Activity [9] | Activity [10] [%] | Activity [11] | Activity [12] | Activity [13] [%] | logD [14] | IC50 (A-375 [16]) [nM] | growth inhibition (GI) (A-375 [1]) | further results
1 | Cc1ncsc1-c1ccc([C@H](C)NC(=O)[C@@H]2C[C@@H](O)CN2C(=O)[C@@H](NC(=O)COCCOCCOCCNC(=O)CCc2ccc(S(=O)(=O)Nc3cc(C)c(=O)n(C)c3Nc3ccc(I)cc3F)cc2)C(C)(C)C)cc1 | 100 | 100 | Active | Active | Active | Active | Active | Active | 94 | Active | Active | 90 | – | – | Active | –
2 | Cc1ncsc1-c1ccc([C@H](C)NC(=O)[C@@H]2C[C@@H](O)CN2C(=O)[C@@H](NC(=O)COCCOCCOCCOCCNC(=O)CCc2ccc(S(=O)(=O)Nc3cc(C)c(=O)n(C)c3Nc3ccc(I)cc3F)cc2)C(C)(C)C)cc1 | 100 | 100 | Active | Active | Active | Active | Active | Active | 96 | Active | Active | 91 | 4.3 | – | Active | solubility [15]: < 1.5 µM
3 | Cc1ncsc1-c1ccc([C@H](C)NC(=O)[C@@H]2C[C@@H](O)CN2C(=O)[C@@H](NC(=O)COCCOCCOCCNC(=O)COc2ccc(S(=O)(=O)Nc3cc(C)c(=O)n(C)c3Nc3ccc(I)cc3F)cc2)C(C)(C)C)cc1 | 100 | 158 | Active | Active | Active | Active | Active | Active | 95 | Active | Active | 72 | – | – | Active | –

Further lines, with some results ahead:

Row | inhibition [2] [%] | IC50 [3] [nM] | Activity [4] | Activity [5] | Activity [6] | Activity [7] | Activity [8] | Activity [9] | Activity [10] [%] | Activity [11] | Activity [12] | Activity [13] [%] | logD [14] | IC50 (A-375 [16]) [nM] | SMILES | growth inhibition (GI) (A-375 [1]) | further results
4 | – | – | – | – | – | – | – | – | – | – | – | – | – | 5 | O=C(c1ccc(F)c(F)c1Nc1ccc(I)cc1F)N1CC(O)([C@@H]2CCCCN2)C1 [COBIMETINIB] | – | –
5 | – | 398 | – | inactive | – | – | – | – | 1 | – | inactive | -7 | 3.9 | – | Cc1cc(NS(=O)(=O)c2ccccc2)c(Nc2ccc(I)cc2F)n(C)c1=O | Active | inhibition [17]: Active; inhibition (A-375 [18]): Active; inhibition [19]: Active; inhibition (INH) (A-375 [20]): 20%; Activity [21]: inactive; inhibition [22]: Active
6 | – | – | – | – | – | – | – | – | – | – | – | – | – | 0.74 | CC(=O)Nc1cccc(-n2c(=O)n(C3CC3)c(=O)c3c(Nc4ccc(I)cc4F)n(C)c(=O)c(C)c32)c1 [TRAMETINIB] | – | –
